From US8865734B2 (priority 2010, dated 2014) come the findings set out here.

≈ marks a conversion by molar mass, not a printed value.

For this test, the system named is multi-drug resistant (MDR) clinical isolates. In words: microbe, parasite or virus in culture. In kind it is cell-based, M. tuberculosis. The conditions noted are these: for level of activity relative to MFX: MDR isolates and H37Rv; for MIC / MIC80: Mycobacterium tuberculosis.

Consider `CCc1nc2ccccn2c1C(=O)NCc1ccc(-c2ccccc2)cc1` [Compound 47, N-(Biphenyl-4-ylmethyl)-2-ethylimidazo[1,2-a]pyridine-3-carboxamide], for which the “level of activity relative to MFX” value is given as “comparable to or better than MFX” and the MIC is at most 1.25 µM. In addition, the MIC80 (MDR isolate #13) stood at 0.312 µM (≈ 0.111 µg/mL). In addition, for the setting “MDR isolate #33”, the MIC80 amounted to 0.312 µM (≈ 0.111 µg/mL). Further, where the note is “MDR isolate #48”, the MIC80 was determined as 0.312 µM (≈ 0.111 µg/mL). This compound returned an MIC80 (MDR isolate #61) of 0.312 µM (≈ 0.111 µg/mL). This compound also registered an MIC80 (MDR isolate #80) of 0.312 µM (≈ 0.111 µg/mL). Besides, the MIC80 (MDR isolate #125) was 0.625 µM (≈ 0.222 µg/mL). The same compound registered an MIC80 (MDR isolate #137) of 1.25 µM (≈ 0.444 µg/mL). The compound also had an MIC80 (MDR isolate #143) of 1.25 µM (≈ 0.444 µg/mL). Moreover, the MIC80 (MDR isolate #146) amounted to 0.156 µM (≈ 0.0555 µg/mL). The compound further had an MIC80 (MDR isolate #171) of 1.25 µM (≈ 0.444 µg/mL).

Regarding `CCc1nc2ccccn2c1C(=O)NCc1ccc(Oc2ccccc2)cc1` [Compound 54, 2-Ethyl-N-(4-phenoxybenzyl)imidazo[1,2-a]pyridine-3-carboxamide], the “level of activity relative to MFX” value was “comparable to or better than MFX” and the MIC was at most 0.625 µM. For the same compound, where the note is “MDR isolate #13”, the MIC80 turned out to be 0.156 µM (≈ 0.058 µg/mL). Under “MDR isolate #33”, this compound showed an MIC80 of 0.156 µM (≈ 0.058 µg/mL). Besides, the MIC80 (MDR isolate #48) came to 0.156 µM (≈ 0.058 µg/mL). The same compound yielded an MIC80 (MDR isolate #61) of 0.156 µM (≈ 0.058 µg/mL). This compound yielded an MIC80 (MDR isolate #80) of 0.156 µM (≈ 0.058 µg/mL). For the same compound, where the note is “MDR isolate #125”, the MIC80 was determined as 0.312 µM (≈ 0.116 µg/mL). This compound also returned an MIC80 (MDR isolate #137) of 0.625 µM (≈ 0.232 µg/mL). In addition, for the setting “MDR isolate #143”, the MIC80 came to 0.312 µM (≈ 0.116 µg/mL). The MIC80 (MDR isolate #146) amounted to 0.312 µM (≈ 0.116 µg/mL). The MIC80 (MDR isolate #171) is 0.312 µM (≈ 0.116 µg/mL).

Consider `NNC(=O)c1ccncc1` [INH, Isoniazid, reference compound], for which the MIC80 was 5 µM (≈ 0.686 µg/mL) (MDR isolate #13); 10 µM (≈ 1.37 µg/mL) (MDR isolate #33); 10 µM (≈ 1.37 µg/mL) (MDR isolate #48); 20 µM (≈ 2.74 µg/mL) (MDR isolate #61); 5 µM (≈ 0.686 µg/mL) (MDR isolate #80); 10 µM (≈ 1.37 µg/mL) (MDR isolate #125). In addition, the MIC80 runs as follows: (MDR isolate #137) 20 µM (≈ 2.74 µg/mL); (MDR isolate #143) 10 µM (≈ 1.37 µg/mL); (MDR isolate #146) 20 µM (≈ 2.74 µg/mL); (MDR isolate #171) 5 µM (≈ 0.686 µg/mL). For the same compound, the “resistance of the MDR strains” value (all MDR tested strains) is recorded as “resistance was confirmed”.
